Data as given in patent US12186392B2, “Combination therapy of an anti CD20 antibody with a BTK inhibitor” (Ono Pharmaceutical Co., Ltd., priority 2013, dated 2025).
Where a name gives a salt, the structure may show the parent alone.

Columns and labels:
[1] = tested on: TMD8 (ABC-DLBCL) cells; test: Antitumor activity study of compound A or compound B (in diet) in combination with RTX in TMD8 xenograft model (Example 3); format: in vivo, SCID mice; details: for Tumor growth inhibition (TGI): vs vehicle group, RTX 3 mg/kg i.v. Q7Dx3, compound A 0.0037% in diet (6 mg/kg/day), compound B 0.012% in diet (20 mg/kg/day)
Experimental: Mice were xenografted on DO. […] Mice received one IV injection of Rituximab (at 3 mg/kg) once a week (D14 (Day 0), 21 (Day 7) and 28 (Day 14): Q7D×3). Tumor volumes were monitored and recorded at Day 3, Day 7, Day 11, Day 14, Day 18 and Day 21.
(§1) Female C.B-17/lcr-SCID/SCIDJcl mice (Clea Japan Inc., age at initiation of experiment: 6 weeks; hereinafter referred to as “Scid mice”) were used. The mice were kept in metal mouse cages, 3 to 5 to a cage, and underwent about 1 week acclimation period prior to being subjected to the experiment. While at our facility, the animals were allowed solid feed, CRF-1 (Oriental Yeast Co., Ltd.) and tap water (from an automatic dispenser) ad libitum. Excrement was processed with an automated cleaning system. The general condition of the animals was observed upon receipt and at the completion of acclimation. Animals having no problems with general condition were used in the experiment.
(§2) TMD8 was established from cells of a patient with diffuse large B-cell lymphoma (Tohda S et al., Leuk Res., 2006, 30: 1385-90). RPMI Medium 1640 (Invitrogen Corporation, hereinafter referred to as “RPMI”) containing 10 vol % inactivated FBS and 1 vol % Penicillin-Streptomycin liquid (Invitrogen Corporation) was prepared and used as medium. The medium was stored at 5° C. (allowable range: 1° C. to 9° C.). The cell suspension of 4×106 to 2.0×10^7 cells per dish was inoculated in a 150 mm dish containing the medium. The plates were incubated at 37° C., 5% CO2, 95% air.
(§3) At Day 0, the pellet was suspended in RPMI previously cooled on ice to obtain a 2×10^8 cells/mL cell suspension. The RPMI cell suspension and equal volume of BD Matrigel GFR (BD Biosciences) were combined to prepare a 1×10^8 cells/mL cell suspension. This was used as the cell suspension for implantation. Then, 0.1 mL of cell suspension was subcutaneously injected in the right flank of the mice under pentobarbital anesthesia, using a 25-gauge needle (Terumo Corporation).
(§4) The long axis and short axis of the tumors were measured with electronic calipers (Mitutoyo Corporation) every 2 or 4 days from TMD8 implantation to the final assessment day.
(§5) The primary endpoint was tumor volume on the final assessment day. In addition, the tumor growth inhibition rate (TGI, %) in the treatment groups versus the vehicle group was calculated. Temporal change in tumor volume and body weight from Day 0 were used as secondary endpoints. Tumor volume was calculated with the following formula. Tumor volume=Long axis of tumor×(short axis of tumor)2×0.5
The experiment in Example 3 was performed according to the method described in Example 1 except for the following “substance vehicle”, “route of drug administration” and “treatment schedule”
The comparative substance, ibrutinib (hereinafter referred to as “compound B”), was stored in sealed containers at ambient temperature, protected from light.
The dose of compound A or compound B corresponds to a daily intake of 6 or 20 mg/kg of body weight.
Treatment groups: Mice fed the same diet containing compound A or compound B after randomization. Rituximab was administered intravenously at a 3 mg/kg once weekly.
Tumor diameter was measured and tumor volume was calculated every 3 or 4 days after group assignment.

[2] = tested on: NK cell-mediated cytotoxicity; details: Kohrt H E et al., Blood 123, 1957-1960, 2014; cited from earlier work
[3] = tested on: TMD8 (ABC-DLBCL) cells; test: Antitumor efficacy study of compound A in combination with GA101 in SCID mice subcutaneously xenografted with TMD8 cells (Example 1); format: in vivo; details: GA101 1 and 3 mg/kg i.v. Q7Dx4
Experimental: Mice were xenografted on DO. Mice received one PO administration of vehicle and compound A at 10 mg/kg twice every day (Q0.5D×24) alone or in combination with one IV injection of GA101 at 1 and 3 mg/kg once a week (Q7D×4). Mice received one IV injection of Rituximab (at 3 mg/kg) or one IV injection of GA101 (at 1 and 3 mg/kg) once a week (D14 (Day 0), 21 (Day 7), 28 (Day 14) and D35 (Day 21): Q7D×4). Tumor volumes were monitored and recorded twice a week.
Antitumor efficacy study of BTK inhibitor in combination with anti-CD20 Abs in SCID mice subcutaneously xenografted with TMD8 (ABC-DLBCL) cells
The test substance, 6-amino-9-[(3R)-1-(2-butynoyl)-3-pyrrolidinyl]-7-(4-phenoxyphenyl)-7,9-dihydro-8H-purin-8-one hydrochloride (hereinafter referred to as “compound A”), was stored in sealed containers at ambient temperature, protected from light.
Compound A was weighed out and suspended in a 0.5 w/v % methyl cellulose 400 cP solution (Wako Pure Chemical Industries, Ltd., hereinafter referred to as “0.5% MC”), using a mortar and pestle, to obtain a 1 mg/mL suspension. The suspension was used within 7 days of preparation. […]
TMD8 was established from cells of a patient with diffuse large B-cell lymphoma (Tohda S et al., Leuk Res., 2006, 30: 1385-90). […] Cells were counted in a hemocytometer and their viability was at least 90% the day of cells injection. […]

[4] = tested on: TMD8 (ABC-DLBCL) cells; test: Antitumor activity study of compound A in combination with GA101/RTX in TMD8 xenograft model (Example 2); format: in vivo, SCID mice; details: for Tumor growth inhibition (TGI): vs vehicle group, GA101 3 mg/kg i.v. Q7Dx4, RTX 3 mg/kg i.v. Q7Dx4, compound A 10 mg/kg p.o. twice daily
Experimental: Mice were xenografted on DO. […] Mice received one IV injection of Rituximab (at 3 mg/kg) or one IV injection of GA101 (at 3 mg/kg) once a week (D14 (Day 0), 21 (Day 7), 28 (Day 14) and 35 (Day 21): Q7D×4). Tumor volumes were monitored and recorded twice a week.
Compound A was per os (PO) administered to mice twice daily by oral gavage via a disposable oral feeding needle (Fuchigami Kikai Co.) at 10 ml/kg. GA101/Rituximab were intravenously (IV) injected at 10 ml/kg in the caudal vein of mice. For all treatments, the administration volumes were adapted according to the closest measure of individual body weight for each mouse. The compound A b.i.d. group and the vehicle group received compound A and 0.5% MC, respectively, in the morning and afternoon at an interval of 8 h or more.
as §1, §2, §3, §4, §5
The experiment in Example 2 was performed according to the method described in Example 1 except for the following “substance vehicle” and “treatment schedule”.
(§6) Compound A was weighed out and suspended in a 0.5 w/v % methyl cellulose 400 cP solution (Wako Pure Chemical Industries, Ltd., hereinafter referred to as “0.5% MC”), using a mortar and pestle, to obtain a 1 mg/mL (10 mg/kg) suspension. The suspension was used within 7 days of preparation.
The stock solutions of both GA101 (25 mg/mL) and Rituximab (10 mg/mL) were kept at 4° C. Before administration to mice, the stock solutions were diluted in NaCl 0.9% at 0.3 mg/mL (3 mg/kg) for this study.
When the mean tumor volume reached 400 to 450 mm^3 mice were randomized in groups of 6 according to their individual tumor volumes and treatment was initiated.

[5] = Stability and uniformity of compound A suspension in 0.5% methyl cellulose; format: physicochemical; details: 1 mg/mL suspension in 0.5% MC; 7 days under refrigeration, protected from light, and a further 24 hours at ambient temperature exposed to indoor lighting
Experimental: Compound A was weighed out and suspended in a 0.5 w/v % methyl cellulose 400 cP solution (Wako Pure Chemical Industries, Ltd., hereinafter referred to as “0.5% MC”), using a mortar and pestle, to obtain a 1 mg/mL suspension. The suspension was used within 7 days of preparation.
as §6

Stability and uniformity of suspension [5]	Molecule	Tumor growth inhibition (TGI) ([1]; day 0) [%]	Tumor growth inhibition (TGI) ([1]; day 3) [%]	Tumor growth inhibition (TGI) ([1]; day 7) [%]	Tumor growth inhibition (TGI) ([1]; day 11) [%]	Tumor growth inhibition (TGI) ([1]; day 14) [%]	Tumor growth inhibition (TGI) ([1]; day 18) [%]	Tumor growth inhibition (TGI) ([1]; day 21) [%]	Statistical significance observed after Day ([1]; monotherapy, RTX 3 mg/kg i.v., compound A 0.0037%, compound B 0.012% in diet) [days]	Effect on RTX-dependent NK cell-mediated cytotoxicity [2]	Antitumoral effect (tumour volume curves, FIGS. 1A-1B) [3]	Tumor growth inhibition (TGI) ([4]; day 0) [%]	Tumor growth inhibition (TGI) ([4]; day 4) [%]	Tumor growth inhibition (TGI) ([4]; day 7) [%]	Tumor growth inhibition (TGI) ([4]; day 11) [%]	Tumor growth inhibition (TGI) ([4]; day 14) [%]	Tumor growth inhibition (TGI) ([4]; day 18) [%]	Tumor growth inhibition (TGI) ([4]; day 21) [%]	Statistical significance observed after Day ([4]; monotherapy, GA101 or RTX 3 mg/kg i.v., compound A 10 mg/kg p.o.) [days]	Antitumor activity compared with the compound B arm ([1]; compound A 0.0037% vs compound B 0.012% in diet, alone or with RTX 3 mg/kg)
–	C=CC(=O)N1CCC[C@@H](n2nc(-c3ccc(Oc4ccccc4)cc3)c3c(N)ncnc32)C1 [compound B, ibrutinib]	0.4	3.2	19.1	34.91	40.2	39.2	47.1	> 11	antagonizes RTX-dependent NK cell-mediated cytotoxicity	–	–	–	–	–	–	–	–	–	–
–	GA101: obinutuzumab, afucosylated glyco-engineered humanized B-Ly1 type II anti-CD20 antibody	–	–	–	–	–	–	–	–	–	showed an antitumoral effect	1.7	30.9	45.0	53.3	63.3	72.2	77.9	–	–
stable and uniform	CC#CC(=O)N1CC[C@@H](n2c(=O)n(-c3ccc(Oc4ccccc4)cc3)c3c(N)ncnc32)C1 [compound A, 6-amino-9-[(3R)-1-(2-butynoyl)-3-pyrrolidinyl]-7-(4-phenoxyphenyl)-7,9-dihydro-8H-purin-8-one hydrochloride]	0.0	12.7	42.8	47.55	51.1	61.0	56.1	–	–	–	0.0	13.7	17.6	34.0	45.8	46.4	62.6	> 11	comparable to compound B (0.012%)
